Laboratory results from ChEMBL document CHEMBL5729430, “ACLY inhibitors and uses thereof” (2022).

Target: T1, ATP-citrate synthase (Homo sapiens, UniProt P53396)
T1 sequence (P53396 whole entry): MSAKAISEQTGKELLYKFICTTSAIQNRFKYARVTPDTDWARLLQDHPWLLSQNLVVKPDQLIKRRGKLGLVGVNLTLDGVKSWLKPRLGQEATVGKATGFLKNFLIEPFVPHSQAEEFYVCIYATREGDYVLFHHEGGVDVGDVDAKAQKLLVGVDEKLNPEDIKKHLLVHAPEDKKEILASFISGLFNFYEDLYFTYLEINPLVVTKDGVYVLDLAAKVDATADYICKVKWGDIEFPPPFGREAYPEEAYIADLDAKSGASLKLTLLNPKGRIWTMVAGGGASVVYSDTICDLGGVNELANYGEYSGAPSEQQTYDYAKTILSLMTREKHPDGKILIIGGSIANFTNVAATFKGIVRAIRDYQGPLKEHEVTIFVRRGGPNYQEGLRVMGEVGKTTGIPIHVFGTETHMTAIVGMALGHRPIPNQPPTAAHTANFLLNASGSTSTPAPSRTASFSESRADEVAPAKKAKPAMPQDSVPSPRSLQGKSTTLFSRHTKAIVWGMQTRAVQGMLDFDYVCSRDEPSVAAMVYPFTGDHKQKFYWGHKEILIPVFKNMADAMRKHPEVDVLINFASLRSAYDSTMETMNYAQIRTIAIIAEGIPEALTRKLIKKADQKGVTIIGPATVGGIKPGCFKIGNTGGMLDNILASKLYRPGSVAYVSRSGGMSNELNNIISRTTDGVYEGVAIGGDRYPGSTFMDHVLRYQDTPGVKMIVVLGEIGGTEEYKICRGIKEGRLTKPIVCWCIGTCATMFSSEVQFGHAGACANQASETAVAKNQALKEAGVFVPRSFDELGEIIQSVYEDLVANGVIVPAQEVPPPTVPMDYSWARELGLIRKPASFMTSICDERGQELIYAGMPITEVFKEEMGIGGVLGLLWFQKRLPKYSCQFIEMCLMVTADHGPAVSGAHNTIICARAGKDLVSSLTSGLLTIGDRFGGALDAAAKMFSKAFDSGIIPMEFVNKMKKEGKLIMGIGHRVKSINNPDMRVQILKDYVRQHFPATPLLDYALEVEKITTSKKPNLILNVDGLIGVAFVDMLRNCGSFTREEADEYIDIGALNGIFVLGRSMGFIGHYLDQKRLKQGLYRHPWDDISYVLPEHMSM
Experiment: ADP-Glo Assay: Compounds of the present invention were evaluated in an ADP-GLO assay as follows:a) Dilute cpd 1:3 in succession in DMSO by hand for each cpds for 12 ptsb) Add 0.1 μL diluted cpd solution to assay plate, each dose with 2 replicatesc) Centrifuge 1000 RPM for 1 mind) Add 5 μL ACL working solution to 384-well assay plate, centrifuge 1000 RPM for 1 mine) Incubate at 25° C. for 15 minf) Add 5 μL substrate working solution to initiate reactiong) Final ACL reaction concentrations: 3 nM ACL, 15 μM ATP, 3 μM CoA, 300 μM Citrate, 0.01% Brij35, 4 mM DTT, 1% DMSO;h) Reference final conc: 30 uM starting Conc, 3× dilution, 11+0 points. Test cpd conc: 30/100 uM starting Conc, 3× dilution, 11+0 points.i) Incubate at 25° C. for 60 minj) Add 10 μL ADP Glo reagent, centrifuge 1000 RPM for 1 mink) Incubate at 25° C. for 40 minl) Add 20 μL kinase detection reagent, centrifuge 1000 RPM for 1 minm) Incubate at 25° C. for 40 minn) Read on Envision for US LUM as RLU.

Compound: O=C(O)c1cc2cc(Cl)ccc2n1S(=O)(=O)c1cc(Cl)cc(Cl)c1
- IC50: < 0.5 µM

Compound: O=S(=O)(c1cc(Cl)cc(Cl)c1)n1c(-c2cncnc2)cc2cc(Cl)ccc21
- IC50: > 20 µM
